Our source for the T/C values is PubChem BioAssay AID248 (DTP/NCI, 2004).

Where “and” joins values, the source holds several entries; their conditions need not be identical. Equal entries are not always repeated. Toxic doses and inconclusive results are not listed.

This test has as its system L1210 leukemia ip in BDF1 mice, survival T/C. Put plainly: NCI In Vivo Anticancer Drug Screen. Data for tumor model L1210 Leukemia (intraperitoneal) in B6D2F1 (BDF1) mice. To be noted: higher = longer survival. In a few lines:
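Value reflects the ratio of survival in compound-treated mice to survival in vehicle-treated controls, with both groups carrying the same transplanted tumor.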

Where [1] appears, read: endpoint: mean survival time, dose: 100.0 mg/kg/injection, schedule: Q01DX001 (ip), vehicle: saline with Tween-80.
The mark [2] stands for this setting: endpoint: mean survival time, dose: 100.0 mg/kg/injection, schedule: Q01DX009 (ip), vehicle: saline with Tween-80.
The mark [3] stands for this setting: endpoint: mean survival time, dose: 100.0 mg/kg/injection, schedule: Q04DX003 (ip), vehicle: saline with Tween-80.
Setting [4] is: endpoint: mean survival time, dose: 200.0 mg/kg/injection, schedule: Q01DX001 (ip), vehicle: saline with Tween-80.
Setting [5] is: endpoint: mean survival time, dose: 200.0 mg/kg/injection, schedule: Q01DX009 (ip), vehicle: saline with Tween-80.
The mark [6] stands for this setting: endpoint: mean survival time, dose: 200.0 mg/kg/injection, schedule: Q04DX003 (ip), vehicle: saline with Tween-80.
[7] abbreviates: endpoint: mean survival time, dose: 400.0 mg/kg/injection, schedule: Q01DX001 (ip), vehicle: saline with Tween-80.
The mark [8] stands for this setting: endpoint: mean survival time, dose: 400.0 mg/kg/injection, schedule: Q04DX003 (ip), vehicle: saline with Tween-80.
[9] abbreviates: endpoint: mean survival time, dose: 100.0 mg/kg/injection, schedule: Q04DX003 (ip), vehicle: Klucel (hydroxypropylcellulose) (HPC).
[10] abbreviates: endpoint: mean survival time, dose: 200.0 mg/kg/injection, schedule: Q04DX003 (ip), vehicle: Klucel (hydroxypropylcellulose) (HPC).
The mark [11] stands for this setting: endpoint: mean survival time, dose: 400.0 mg/kg/injection, schedule: Q04DX003 (ip), vehicle: Klucel (hydroxypropylcellulose) (HPC).
The mark [12] stands for this setting: endpoint: mean survival time, dose: 50.0 mg/kg/injection, schedule: Q04DX002 (ip), vehicle: Klucel (hydroxypropylcellulose) (HPC).
Setting [13] is: endpoint: mean survival time, dose: 100.0 mg/kg/injection, schedule: Q04DX002 (ip), vehicle: Klucel (hydroxypropylcellulose) (HPC).
[14] abbreviates: endpoint: mean survival time, dose: 200.0 mg/kg/injection, schedule: Q01DX009 (ip), vehicle: Klucel (hydroxypropylcellulose) (HPC).
[15] abbreviates: endpoint: mean survival time, dose: 200.0 mg/kg/injection, schedule: Q04DX002 (ip), vehicle: Klucel (hydroxypropylcellulose) (HPC).
The mark [16] stands for this setting: endpoint: mean survival time, dose: 20.0 mg/kg/injection, schedule: Q01DX001 (ip), vehicle: carboxymethylcellulose (CMC).
The mark [17] stands for this setting: endpoint: mean survival time, dose: 100.0 mg/kg/injection, schedule: Q01DX001 (ip), vehicle: saline.
[18] abbreviates: endpoint: mean survival time, dose: 200.0 mg/kg/injection, schedule: Q01DX001 (ip), vehicle: saline.
The mark [19] stands for this setting: endpoint: mean survival time, dose: 5.0 mg/kg/injection, schedule: Q01DX001 (ip), vehicle: carboxymethylcellulose (CMC).
[20] abbreviates: endpoint: mean survival time, dose: 100.0 mg/kg/injection, schedule: Q01DX001 (ip), vehicle: carboxymethylcellulose (CMC).
Setting [21] is: endpoint: mean survival time, dose: 50.0 mg/kg/injection, schedule: Q01DX001 (ip), vehicle: saline.
The mark [22] stands for this setting: endpoint: mean survival time, dose: 400.0 mg/kg/injection, schedule: Q01DX001 (ip), vehicle: saline.

With `Nc1ccn(C2CC(O)C(CO)O2)c(=O)n1` (configuration not stated), the T/C is, setting by setting: (endpoint: median survival time, dose: 75.0 mg/kg/injection, schedule: Q01DX001 (ip), vehicle: other) 100 % of control and 101 % of control; (endpoint: median survival time, dose: 150.0 mg/kg/injection, schedule: Q01DX001 (ip), vehicle: other) 99 % of control and 100 % of control.
In the case of `CCOC(=O)c1ccc(NC(=O)Nc2ccc(OC)cc2Cl)cc1`, the T/C is 96 % of control under setting [1]; 104 % of control under setting [2]; 94 % of control and 90 % of control (endpoint: mean survival time, dose: 100.0 mg/kg/injection, schedule: Q04DX002 (ip), vehicle: saline with Tween-80); 101 % of control under setting [3]; 91 % of control under setting [4]; 104 % of control under setting [5]. Further, the T/C is 90 % of control and 91 % of control (endpoint: mean survival time, dose: 200.0 mg/kg/injection, schedule: Q04DX002 (ip), vehicle: saline with Tween-80); 97 % of control under setting [6]; 106 % of control under setting [7]; 92 % of control (endpoint: mean survival time, dose: 400.0 mg/kg/injection, schedule: Q01DX009 (ip), vehicle: saline with Tween-80); 94 % of control and 87 % of control (endpoint: mean survival time, dose: 400.0 mg/kg/injection, schedule: Q04DX002 (ip), vehicle: saline with Tween-80); 92 % of control under setting [8].
With `CCCCCCCCCCCCCCOc1ccc(Cc2ccccc2)cc1`, the T/C by setting is: under setting [9], 91 % of control; under setting [10], 90 % of control; under setting [11], 88 % of control.
In the case of `CC(C)=CCNC(=O)NS(=O)(=O)c1ccc(C)cc1`, the T/C under setting [12] was 104 % of control; the T/C (endpoint: mean survival time, dose: 100.0 mg/kg/injection, schedule: Q01DX009 (ip), vehicle: Klucel (hydroxypropylcellulose) (HPC)) was 100 % of control; the T/C under setting [13] is 89 % of control; the T/C under setting [14] was 107 % of control; the T/C under setting [15] was 93 % of control; the T/C (endpoint: mean survival time, dose: 400.0 mg/kg/injection, schedule: Q01DX009 (ip), vehicle: Klucel (hydroxypropylcellulose) (HPC)) is 96 % of control.
As for `NCCCCCc1ccccc1`, the T/C (endpoint: mean survival time, dose: 50.0 mg/kg/injection, schedule: Q04DX003 (ip), vehicle: saline) was 109 % of control.
As for `O=NN(CCF)C(=O)Nc1c[nH]c(=O)[nH]c1=O`, under setting [16], the T/C is 178 % of control.
As to `Cc1c(CBr)c(=O)[nH]c2ccccc12`, the T/C runs as follows: under setting [17], 100 % of control; under setting [18], 98 % of control.
As for `CCOC(=O)c1c(Cl)c(Cl)c(Cl)c(Cl)c1C(=O)O`, the T/C runs as follows: under setting [1], 95 % of control; under setting [2], 96 % of control; under setting [4], 97 % of control; under setting [5], 102 % of control; under setting [7], 115 % of control.
Take `NNC(=O)Cc1ccccc1`: the T/C is 94 % of control (endpoint: mean survival time, dose: 100.0 mg/kg/injection, schedule: Q04DX003 (ip), vehicle: saline) and 89 % of control (endpoint: mean survival time, dose: 200.0 mg/kg/injection, schedule: Q04DX003 (ip), vehicle: saline).
`CCCNC(=O)C1C2CCC(C2)C1C(=O)NCCC` (configuration not stated): the T/C is, setting by setting: under setting [3], 96 % of control; under setting [6], 96 % of control; under setting [8], 96 % of control.
For `Cc1c(CC=C(c2ccccc2)c2ccccc2)cccc1C[N+](C)(C)C`, the T/C was 101 % of control under setting [19]; 106 % of control (endpoint: mean survival time, dose: 10.0 mg/kg/injection, schedule: Q01DX001 (ip), vehicle: carboxymethylcellulose (CMC)); 98 % of control under setting [16]; 90 % of control (endpoint: mean survival time, dose: 40.0 mg/kg/injection, schedule: Q01DX001 (ip), vehicle: carboxymethylcellulose (CMC)); 90 % of control (endpoint: mean survival time, dose: 80.0 mg/kg/injection, schedule: Q01DX001 (ip), vehicle: carboxymethylcellulose (CMC)); 93 % of control under setting [20].
On to `c1ccc(C(c2ccccc2)(c2nccs2)n2ccnc2)cc1`, for which the T/C is 95 % of control under setting [9], 98 % of control under setting [10] and 104 % of control under setting [11].
For `Nc1ncnc2c1ncn2C1OC(CO)C(O)C1N` (configuration not stated), the T/C (endpoint: mean survival time, dose: 50.0 mg/kg/injection, schedule: Q01DX001 (ip), vehicle: carboxymethylcellulose (CMC)) is 100 % of control; the T/C under setting [21] is 103 % of control and 108 % of control; the T/C under setting [20] was 110 % of control; the T/C under setting [17] is 98 % of control and 103 % of control; the T/C (endpoint: mean survival time, dose: 200.0 mg/kg/injection, schedule: Q01DX001 (ip), vehicle: carboxymethylcellulose (CMC)) was 100 % of control; the T/C under setting [18] was 90 % of control and 108 % of control. Moreover, the T/C (endpoint: mean survival time, dose: 400.0 mg/kg/injection, schedule: Q01DX001 (ip), vehicle: carboxymethylcellulose (CMC)) was 98 % of control; the T/C under setting [22] is 100 % of control and 116 % of control.
As to `CCC(C(=O)O)C(C)(C)O` (configuration not stated), the T/C is 93 % of control under setting [17], 93 % of control under setting [18] and 103 % of control under setting [22].
Take `C/C=C(/C(=O)O)c1ccccc1`: the T/C was 109 % of control under setting [9], 88 % of control under setting [10] and 94 % of control under setting [11].
For the molecule `CC1(C)N=C(N)N=C(N)N1c1ccc(OCc2ccc(C(=O)Nc3cccc(S(=O)(=O)F)c3)cc2)c(Cl)c1`, the T/C is 100 % of control (endpoint: mean survival time, dose: 25.0 mg/kg/injection, schedule: Q01DX009 (ip), vehicle: Klucel (hydroxypropylcellulose) (HPC)); 124 % of control under setting [9]; 86 % of control under setting [14]; 162 % of control and 168 % of control under setting [10]; 105 % of control and 106 % of control and 116 % of control under setting [11].
Regarding `COC(=O)c1cc(C)[nH]c2c(C)cc3nc4ccccc4c3c12`, the T/C is, setting by setting: under setting [21], 95 % of control; under setting [17], 98 % of control; under setting [18], 101 % of control; under setting [22], 104 % of control.
Turning to `CCOc1ccn(C2OC(COC(C)=O)C(OC(C)=O)C(OC(C)=O)C2Nc2ccc([N+](=O)[O-])cc2[N+](=O)[O-])c(=O)n1` (configuration not stated), the T/C was 103 % of control under setting [17], 100 % of control under setting [18] and 97 % of control under setting [22].
For `COc1ccc(C(C)N=CC(C)(C)C)cc1` (configuration not stated), the T/C under setting [3] is 101 % of control and the T/C under setting [6] is 101 % of control.
`O=NN(CCCl)C(=O)NC1CCSCC1`: the T/C (endpoint: mean survival time, dose: 0.5 mg/kg/injection, schedule: Q01DX001 (ip), vehicle: carboxymethylcellulose (CMC)) was 104 % of control; the T/C (endpoint: mean survival time, dose: 1.0 mg/kg/injection, schedule: Q01DX001 (ip), vehicle: carboxymethylcellulose (CMC)) was 104 % of control; the T/C (endpoint: mean survival time, dose: 4.0 mg/kg/injection, schedule: Q01DX001 (ip), vehicle: carboxymethylcellulose (CMC)) is 179 % of control; the T/C under setting [19] is 226 % of control; the T/C (endpoint: mean survival time, dose: 6.0 mg/kg/injection, schedule: Q01DX001 (ip), vehicle: carboxymethylcellulose (CMC)) was 203 % of control and 277 % of control; the T/C (endpoint: mean survival time, dose: 8.0 mg/kg/injection, schedule: Q01DX001 (ip), vehicle: carboxymethylcellulose (CMC)) is 290 % of control and 319 % of control and 322 % of control. For the same molecule, the T/C runs as follows: (endpoint: mean survival time, dose: 9.0 mg/kg/injection, schedule: Q01DX001 (ip), vehicle: carboxymethylcellulose (CMC)) 312 % of control; (endpoint: mean survival time, dose: 12.0 mg/kg/injection, schedule: Q01DX001 (ip), vehicle: carboxymethylcellulose (CMC)) 319 % of control and 322 % of control; (endpoint: mean survival time, dose: 14.0 mg/kg/injection, schedule: Q01DX001 (ip), vehicle: carboxymethylcellulose (CMC)) 312 % of control; (endpoint: mean survival time, dose: 16.0 mg/kg/injection, schedule: Q01DX001 (ip), vehicle: carboxymethylcellulose (CMC)) 234 % of control; (endpoint: mean survival time, dose: 18.0 mg/kg/injection, schedule: Q01DX001 (ip), vehicle: carboxymethylcellulose (CMC)) 158 % of control; (endpoint: mean survival time, dose: 21.0 mg/kg/injection, schedule: Q01DX001 (ip), vehicle: carboxymethylcellulose (CMC)) 122 % of control. In addition, the T/C (endpoint: mean survival time, dose: 24.0 mg/kg/injection, schedule: Q01DX001 (ip), vehicle: carboxymethylcellulose (CMC)) was 90 % of control.
Take `Cc1cnc(NC#N)nc1-c1ccccc1O`: the T/C reads like this: under setting [13], 95 % of control; under setting [15], 98 % of control; (endpoint: mean survival time, dose: 400.0 mg/kg/injection, schedule: Q04DX002 (ip), vehicle: Klucel (hydroxypropylcellulose) (HPC)) 95 % of control.
For the molecule `CC(=O)NC1C(NC(=O)C(CC(=O)O)NC(=O)OCc2ccccc2)OC(COC(C)=O)C(OC(C)=O)C1OC(C)=O` (configuration not stated), the T/C under setting [12] is 94 % of control and the T/C under setting [13] was 91 % of control.
